Results from patent US20150126475A1, “PESTICIDAL COMPOSITION AND METHOD FOR CONTROLLING PESTS” (priority 2012, published 2015).

Tests used:
Assay type in all cases: in vivo
[1] = tested on: southern root-knot nematode (Meloidogyne incognita); assay: Root knot index on tomato in pots with soil contaminated with southern root-knot nematode (Test Example 1); set-up: key: visual root knot index, 0 to 100%; conditions: non-treated = 100
Method: 1 Liter of sand soil having paddy soil sterilized by steam and sand mixed in a volume ratio of 1:1 was put into a 1/1,000,000 ha pot, and a predetermined amount of a test compound was added and mixed. Immediately after addition of the compound, 500 mL of soil contaminated with southern root-knot nematode (Meloidogyne incognita) was put in each pot and sufficiently mixed, and then seedling of tomato (cultivar: yellow pear) were transplantated. On the 33rd to 35th day after transplantation, the root knot index (0 to 100%) formed by nematode was visually determined. The test was carried out by two replications.
Further, theoretical values determined by the Colby's formula are shown in brackets ( ) in Tables.

common cutworm = assay: Control of common cutworm larvae on leaf of cabbage grown in treated soil (Test Example 3); conditions: second-instar larvae, 4th day
Description: (§1) Control value(%)=(1−(number of parasites in treated area)/(number of parasites in non-treated area))×100
Sand soil having sand, non-sterilized soil and sterilized soil mixed in a volume ratio of 1:1:1 was put into a 1/500,000 ha pot, and predetermined amounts of test compounds were sufficiently mixed. Seedlings of cabbage (cultivar: Okina) in 3-leaf stage were transplanted and grown in a greenhouse for 11 days. Then, the fourth leaf of the cabbage was cut, and 10 second-instar larvae of common cutworm were released. On the 4th day, the number of surviving insects was examined, and the control value was determined in the same manner as in Test Example 2. The test was carried out by three replications. Further, theoretical values determined by the Colby's formula are shown in brackets ( ) in Table 5. Further, the combination of fosthiazate and imidacloprid was tested as a Comparative Example.

larvae of turnip fly = assay: Field test, damage to Daikon radish root by larvae of turnip fly (Test Example 4); conditions: 36th day after sowing
Method: Granules of fosthiazate and granules of clothianidin were mixed in predetermined active ingredient amounts, and the mixture was spread on the surface of soil of a field and sufficiently mixed by a small rotary. Seeds of Daikon radish were sown, and on the 36th day after sowing, the degree of damage to the root by larvae of turnip fly was examined by degree, and the damage grade was determined in accordance with the following formula. Further, theoretical values determined by the Colby's formula are shown in brackets ( ) in Table 6. Further, the combination of granules of fosthiazate and granules of imidacloprid was tested as a Comparative Example.
Degree of damage (nil: 0, low: 1, middle: 2, high: 3, enormous: 4)
Damage grade={Σ(damage grade index×number of Daikon radish investigated at each degree of damage)/(total number investigated×4)}×100

two-spotted spider mite = assay: Control of two-spotted spider mite on eggplant seedlings in pots (Test Example 2); conditions: 14th day after treatment
Method: 1 Liter of sand soil having paddy soil sterilized by steam and sand mixed in a volume ratio of 1:1 was put into a 1/1,000,000 ha pot, and a predetermined amount of a test compound was added and mixed. Seedlings of eggplant (cultivar: Senryo No. 2) in which 30 adults of two-spotted spider mite (greenish yellow) were parasitic were transplanted and grown in a greenhouse for 5 days, and a test compound was applied to each pot. On the 14th day after treatment, the number of two-spotted spider mite parasitic in each pot was examined. The test was carried out by three replications. The test results are shown in Table 4 by the control value (%). Further, theoretical values determined by the Colby's formula are shown in brackets ( ) in Table 4.
Further, the control value (%) was calculated in accordance with the following formula.
as §1

[2] = Table 2, single compound 500 g a.i./ha
[3] = Table 3, single compound 5000 g a.i./ha
[4] = single compound granules 500 g a.i/ha
[5] = single compound granules 750 g a.i/ha
[6] = single compound granules 1000 g a.i/ha
[7] = Table 1, single compound 5000 g a.i./ha, tomato, 33rd to 35th day

Q: For Cc1c(F)c(F)c(COC(=O)[C@@H]2[C@H](/C=C(\Cl)C(F)(F)F)C2(C)C)c(F)c1F (racemic) [Tefluthrin, tefluthrin], which Root knot index [1, 2] is on record?
A: 100

Q: With O=C(NC(=O)c1c(F)cccc1F)Nc1cc(Cl)c(Oc2ncc(C(F)(F)F)cc2Cl)c(Cl)c1 [Chlorfluazuron, chlorfluazuron] as the molecule, how does the Root knot index [1, 3] read?
A: 100

Q: For O=C(NC(=O)c1c(F)cccc1F)Nc1ccc(Oc2ccc(C(F)(F)F)cc2Cl)cc1F [Flufenoxuron, flufenoxuron], which Root knot index [1, 3] is on record?
A: 100

Q: Which results are given for O=[N+]([O-])NC1=NCCN1Cc1ccc(Cl)nc1 [Imidacloprid, imidacloprid]?
A: Control value (common cutworm; single compound 156 g a.i/ha): 6.7%; Control value (common cutworm; single compound 313 g a.i/ha): 13.3%; Damage degree (larvae of turnip fly; [4]): 23.2; Damage degree (larvae of turnip fly; [5]): 34.7; Damage degree (larvae of turnip fly; [6]): 26.3

Q: How did the Root knot index [1, 2] turn out when CCOc1ccc([Si](C)(C)CCCc2ccc(F)c(Oc3ccccc3)c2)cc1 [Silafluofen, silafluofen] was run?
A: 100

Q: How did the Root knot index [1, 3] turn out when O=C(NC(=O)c1c(F)cccc1F)Nc1cc(Cl)c(F)c(Cl)c1F [Teflubenzuron, teflubenzuron] was run?
A: 100

Q: With CN/C(=N\[N+](=O)[O-])NCc1cnc(Cl)s1 [clothianidin] as the molecule, how does the Root knot index [1, 7] read?
A: 99.3

Q: And the Control value (two-spotted spider mite; single compound 400 g a.i/ha)?
A: 35%

Q: What about the Control value (two-spotted spider mite; single compound 800 g a.i/ha) of the same molecule?
A: 48%

Q: And the Control value (two-spotted spider mite; single compound 1500 g a.i/ha)?
A: 22%

Q: What about the Control value (common cutworm; single compound 156 g a.i/ha) of the same molecule?
A: 3.3%

Q: What about the Control value (common cutworm; single compound 313 g a.i/ha) of the same molecule?
A: 20.0%

Q: What about the Damage degree (larvae of turnip fly; [4]) of the same molecule?
A: 20.0

Q: What about the Damage degree (larvae of turnip fly; [5]) of the same molecule?
A: 25.3

Q: What about the Damage degree (larvae of turnip fly; [6]) of the same molecule?
A: 0

Q: For CN/C(=N/CC1CCOC1)N[N+](=O)[O-] (stereo not shown) [dinotefuran], which Root knot index [1, 7] is on record?
A: 97.6

Q: What does the source list for CCOP(=O)(SC(C)CC)N1CCSC1=O (stereo not shown) [fosthiazate]?
A: Root knot index ([1]; Table 1, single compound 750 g a.i./ha, soil mixing, tomato, 33rd to 35th day): 35.4; Root knot index ([1]; Table 2, single compound 750 g a.i./ha): 22.0; Root knot index ([1]; Table 2, single compound 1500 g a.i./ha): 5.0; Root knot index ([1]; Table 3, single compound 750 g a.i./ha): 15.8; Control value (two-spotted spider mite; single compound 6000 g a.i/ha): 98%; Control value (common cutworm; single compound 6000 g a.i/ha): 73.3%; Damage degree (larvae of turnip fly; single compound granules 6000 g a.i/ha, Daikon radish field): 33.7

Q: CN1COCN(Cc2cnc(Cl)s2)/C1=N\[N+](=O)[O-] [thiamethoxam] was tested. Which Root knot index [1, 7] did it give?
A: 95.7
